From US8513289B2, “P38 kinase inhibiting agents” (Merck Sharp & Dohme Corp., priority 2009, dated 2013)
pIC50: −log10 of the molar value.

How the values were obtained:
p38-α = molecular target: T1, p38-α (Homo sapiens, UniProt Q16539); assay: p38 kinase assay, p38-α with peptide substrate (Caliper LabChip); type: biochemical; conditions: read-out: IC50 p38a*peptide
T1 construct: purchased Millipore
Procedure: Alternatively, p38 kinase assays were performed in a reaction volume of 70 µL in a 384-well plate, at 30° for […] under the following conditions: 50 mM Hepes, pH 7.4, 10 mM MgCl2, 1 mg/ml FA Free BSA, 1 mM DTT, 10 μM ATP, 10 μM p38 peptide [Caliper Life Sciences FL-Peptide 8 (5-FAM-IPTSPITTTYFFEKKK-COOH)] and 5.7 nM p38-α (Millipore), or 14.3 nM unactivated MAPKAP kinase-2, 0.18 nM p38-α (Millipore) and 2 uM RSK peptide [Caliper Life Sciences FL-Peptide 11 (5-FAM-KKLNRTLSVA-COOH)]. Serial dilutions of compounds were added to each reaction in 700 nL DMSO. 700 nL of DMSO was added to the control wells of the reaction plate as the no inhibitor control for each inhibitor titration. The reaction was terminated by the addition of 15 μL of a 100 mM EDTA. Product formation was analyzed using the Caliper LabChip 3000. The Separation buffer contained 100 mM HEPES pH 7.5, 0.015% Brij-35, 2.5% Coating Reagent #3 (Caliper Life Sciences) and 10 mM EDTA. Calculation of the substrate product ratios are performed using the HTS Well Analyzer software provided by Caliper Life Sciences and the percent inhibition at each compound concentration is determined.

hWB = assay: IC50 hWB (TNF-α release assay); type: cell-based; conditions: Homo sapiens

T1 sequence (Q16539 whole entry): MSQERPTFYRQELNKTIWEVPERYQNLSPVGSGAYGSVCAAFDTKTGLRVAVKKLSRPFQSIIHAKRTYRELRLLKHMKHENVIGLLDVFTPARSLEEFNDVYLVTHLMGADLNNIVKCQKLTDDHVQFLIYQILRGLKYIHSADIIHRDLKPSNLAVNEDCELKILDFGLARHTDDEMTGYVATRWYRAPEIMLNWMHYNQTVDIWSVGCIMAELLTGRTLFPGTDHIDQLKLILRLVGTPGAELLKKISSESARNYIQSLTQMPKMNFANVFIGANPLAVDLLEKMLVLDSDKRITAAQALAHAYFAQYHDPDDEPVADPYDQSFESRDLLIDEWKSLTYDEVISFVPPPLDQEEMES

Structure (SMILES) | pIC50 (p38-α) | pIC50 (hWB)
O=C(NCc1nnc(-c2ccc(F)cc2)s1)c1cc(C(=O)c2c(F)cc(F)cc2F)c[nH]1 [Example 8, N-{[5-(4-fluorophenyl)-1,3,4-thiadiazol-2-yl]methyl}-4-(2,4,6-trifluorobenzoyl)-1H-pyrrole-2-carboxamide] | 7.30 | 6.00
O=C(NCc1nnc(-c2cccc(F)c2)s1)c1cc(C(=O)c2c(F)cc(F)cc2F)c[nH]1 [Example 9, N {[5-(3-fluorophenyl)-1,3,4-thiadiazol-2-yl]methyl}-4-(2,4,6-trifluorobenzoyl)-1H-pyrrole-2-carboxamide] | 6.34 | 5.46
O=C(NCc1nnc(-c2c(F)cccc2F)s1)c1cc(C(=O)c2c(F)cc(F)cc2F)c[nH]1 [Example 11, N-{[5-(2,6-difluorophenyl)-1,3,4-tbiadiazol-2-yl]methyl}-4-(2,4,6-trifluorobenzoyl)-1H-pyrrole-2-carboxamide] | 6.56 | 5.55
O=C(NCc1nnc(-c2ccccn2)s1)c1cc(C(=O)c2c(F)cc(F)cc2F)c[nH]1 [Example 12, N-[(5-pyridin-2-yl-1,3,4-thiadiazol-2-yl)methyl]-4-(2,4,6-trifluorobenzoyl)-1H-pyrrole-2-carboxamide] | 7.18 | 6.24
O=C(NCc1nnc(-c2cccnc2)s1)c1cc(C(=O)c2c(F)cc(F)cc2F)c[nH]1 [Example 13, N-[(5-pyridin-3-yl-1,3,4-thiadiazol-2-yl)methyl]-4-(2,4,6-trifluorobenzoyl)-1H-pyrrole-2-carboxamide] | 7.40 | 6.13
O=C(NCc1nnc(-c2ccc[nH]2)s1)c1cc(C(=O)c2c(F)cc(F)cc2F)c[nH]1 [Example 14, N-{[5-(1H-pyrrol-2-yl)-1,3,4-thiadiazol-2-yl]methyl}-4-(2,4,6-trifluorobenzoyl)-1H-pyrrole-2-carboxamide] | 6.92 | 5.90
O=C(NCc1nnc(-c2ccco2)s1)c1cc(C(=O)c2c(F)cc(F)cc2F)c[nH]1 [Example 15, N-{[5-(2-furyl)-1,3,4-thiadiazol-2-yl]methyl}-4-(2,4,6-trifluorobenzoyl)-1H-pyrrole-2-carboxamide] | 7.01 | 6.21
COc1ccc(-c2nnc(CNC(=O)c3cc(C(=O)c4c(F)cc(F)cc4F)c[nH]3)s2)cn1 [Example 17, N-{[5-(6-methoxypyridin-3-yl)-1,3,4-thiadiazol-2-yl]methyl}-4-(2,4,6-trifluorobenzoyl)-1H-pyrrole-2-carboxamide] | 7.11 | 5.55
Cc1cc(-c2nnc(CNC(=O)c3cc(C(=O)c4c(F)cc(F)cc4F)c[nH]3)s2)[nH]n1 [Example 20, N-{[5-(3-methyl-1H-pyrazol-5-yl)-1,3,4-thiadiazol-2-yl]methyl}-4-(2,4,6-trifluorobenzoyl)-1H-pyrrole-2-carboxamide] | 7.66 | 6.58
O=C(NCc1nnc(-c2cnccn2)s1)c1cc(C(=O)c2c(F)cc(F)cc2F)c[nH]1 [Example 21, N-[(5-pyrazin-2-yl-1,3,4-thiadiazol-2-yl)methyl]-4-(2,4,6-trifluorobenzoyl)-1H-pyrrole-2-carboxamide] | 7.11 | 6.09
CC(C)c1cc(-c2nnc(CNC(=O)c3cc(C(=O)c4c(F)cc(F)cc4F)c[nH]3)s2)[nH]n1 [Example 25, N-{[5-(3-isopropyl-1H-pyrazol-5-yl)-1,3,4-thiadiazol-2-yl]methyl}-4-(2,4,6-trifluorobenzoyl)-1H-pyrrole-2-carboxamide] | 8.00 | 7.05
CC(C)Cc1cc(-c2nnc(CNC(=O)c3cc(C(=O)c4c(F)cc(F)cc4F)c[nH]3)s2)[nH]n1 [Example 26, N-{[5-(3-isobutyl-1H-pyrazol-5-yl)-1,3,4-thiadiazol-2-yl]methyl}-4-(2,4,6-trifluorobenzoyl)-1H-pyrrole-2-carboxamide] | 7.62 | 6.79
O=C(NCc1nnc(-c2n[nH]c3ccccc23)s1)c1cc(C(=O)c2c(F)cc(F)cc2F)c[nH]1 [Example 28, N-{[5-(1H-indazol-3-yl)-1,3,4-thiadiazol-2-yl]methyl}-4-(2,4,6-trifluorobenzoyl)-1H-pyrrole-2-carboxamide] | 7.16 | 6.44
O=C(NCc1nnc(-c2cc3ncccn3n2)s1)c1cc(C(=O)c2c(F)cc(F)cc2F)c[nH]1 [Example 29] | 7.77 | 6.05
O=C(NCc1nnc(-c2ccn[nH]2)s1)c1cc(C(=O)c2c(F)cc(F)cc2F)c[nH]1 [Example 32, N-{[5-(1H-pyrazol-5-yl)-1,3,4-thiadiazol-2-yl]methyl}-4-(2,4,6-trifluorobenzoyl)-1H-pyrrole-2-carboxamide] | 7.37 | 7.08
O=C(NCc1nnc(-c2ccc[nH]c2=O)s1)c1cc(C(=O)c2c(F)cc(F)cc2F)c[nH]1 [Example 35, N-{[5-(2-oxo-1,2-dihydropyridin-3-yl)-1,3,4-thiadiazol-2-yl]methyl}-4-(2,4,6-trifluorobenzoyl)-1H-pyrrole-2-carboxamide] | 7.43 | 6.78
O=C(NCc1nnc(-c2ccc[nH]c2=O)s1)c1cc(Cc2c(F)cc(F)cc2F)c[nH]1 [Example 43, N-{[5-(2-oxo-1,2-dihydropyridin-3-yl)-1,3,4-thiadiazol-2-yl]methyl}-4-(2,4,6-trifluorobenzyl)-1H-pyrrole-2-carboxamide] | 6.59 | 5.73
O=C(NCc1nnc(-c2ccn[nH]2)s1)c1cc(Cc2c(F)cc(F)cc2F)c[nH]1 [Example 45, N-{[5-(1H-pyrazol-5-yl)-1,3,4-thiadiazol-2-yl]methyl}-4-(2,4,6-trifluorobenzyl)-1H-pyrrole-2-carboxamide] | 6.45 | 5.87
Cc1cc(-c2nnc(CNC(=O)c3cc(Cc4c(F)cc(F)cc4F)c[nH]3)s2)[nH]n1 [Example 46, N-{[5-(3-methyl-1H-pyrazol-5-yl)-1,3,4-thiadiazol-2-yl]methyl}-4-(2,4,6-trifluorobenzyl)-1H-pyrrole-2-carboxamide] | 6.61 | 5.49
